Where a name gives a salt, the structure may show the parent alone.
Columns and labels:
[1] = system: ENaC β-subunit overexpressing transgenic mice; conditions: administration to the lungs of the mice for 14 days after birth; cited from earlier work
[2] = system: normal subjects; conditions: treatment of normal subjects; cited from earlier work
[3] = target: T1, Sodium Channel ENaC (Homo sapiens, UniProt P37088+P51168+P51170); experiment: Sodium Channel ENaC Ussing Chamber Test (short circuit current); type: cell-based; conditions: human primary bronchial epithelial cells at air-liquid interface; inhibition of short circuit current; compounds added to the apical side
T1 construct: Human primary bronchial epithelial cells differentiated at air-liquid interface (ALI); host or cells: Human primary bronchial epithelial cells differentiated at air-liquid interface
T1 sequence (P37088 1-669): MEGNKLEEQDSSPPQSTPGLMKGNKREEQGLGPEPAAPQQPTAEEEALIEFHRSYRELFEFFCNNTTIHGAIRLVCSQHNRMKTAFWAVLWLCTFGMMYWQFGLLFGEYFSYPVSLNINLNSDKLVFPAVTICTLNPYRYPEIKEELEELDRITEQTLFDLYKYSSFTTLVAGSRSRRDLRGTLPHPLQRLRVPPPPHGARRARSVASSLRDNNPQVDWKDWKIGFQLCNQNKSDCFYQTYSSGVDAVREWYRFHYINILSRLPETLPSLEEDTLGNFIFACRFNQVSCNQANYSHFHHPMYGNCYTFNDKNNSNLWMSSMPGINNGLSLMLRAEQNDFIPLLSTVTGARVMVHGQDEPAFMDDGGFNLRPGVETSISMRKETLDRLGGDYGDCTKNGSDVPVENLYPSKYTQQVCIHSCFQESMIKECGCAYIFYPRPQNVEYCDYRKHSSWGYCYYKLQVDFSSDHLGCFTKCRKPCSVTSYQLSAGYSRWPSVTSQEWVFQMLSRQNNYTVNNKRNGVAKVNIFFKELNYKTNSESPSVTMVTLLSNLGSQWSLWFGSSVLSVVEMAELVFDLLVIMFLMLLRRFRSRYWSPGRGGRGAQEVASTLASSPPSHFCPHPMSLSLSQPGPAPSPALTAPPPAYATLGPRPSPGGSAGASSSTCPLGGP
T1 sequence (P51168 1-640): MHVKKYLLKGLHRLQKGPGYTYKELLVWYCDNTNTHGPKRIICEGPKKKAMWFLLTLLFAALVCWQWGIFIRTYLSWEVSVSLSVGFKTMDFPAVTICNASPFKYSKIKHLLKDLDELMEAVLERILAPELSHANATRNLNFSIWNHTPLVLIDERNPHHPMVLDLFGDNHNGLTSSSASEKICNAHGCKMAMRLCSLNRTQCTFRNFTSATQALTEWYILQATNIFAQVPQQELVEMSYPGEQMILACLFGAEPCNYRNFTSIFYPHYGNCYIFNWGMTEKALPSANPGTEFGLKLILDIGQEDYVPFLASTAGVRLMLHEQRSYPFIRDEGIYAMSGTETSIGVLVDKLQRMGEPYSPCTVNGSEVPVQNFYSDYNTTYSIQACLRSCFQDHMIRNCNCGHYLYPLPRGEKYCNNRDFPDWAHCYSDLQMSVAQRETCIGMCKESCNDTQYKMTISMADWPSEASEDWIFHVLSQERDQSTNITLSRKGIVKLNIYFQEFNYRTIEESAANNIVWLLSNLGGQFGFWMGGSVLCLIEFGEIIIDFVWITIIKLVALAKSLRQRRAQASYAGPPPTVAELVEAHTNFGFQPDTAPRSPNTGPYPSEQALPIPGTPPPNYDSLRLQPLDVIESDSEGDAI
T1 sequence (P51170 1-649): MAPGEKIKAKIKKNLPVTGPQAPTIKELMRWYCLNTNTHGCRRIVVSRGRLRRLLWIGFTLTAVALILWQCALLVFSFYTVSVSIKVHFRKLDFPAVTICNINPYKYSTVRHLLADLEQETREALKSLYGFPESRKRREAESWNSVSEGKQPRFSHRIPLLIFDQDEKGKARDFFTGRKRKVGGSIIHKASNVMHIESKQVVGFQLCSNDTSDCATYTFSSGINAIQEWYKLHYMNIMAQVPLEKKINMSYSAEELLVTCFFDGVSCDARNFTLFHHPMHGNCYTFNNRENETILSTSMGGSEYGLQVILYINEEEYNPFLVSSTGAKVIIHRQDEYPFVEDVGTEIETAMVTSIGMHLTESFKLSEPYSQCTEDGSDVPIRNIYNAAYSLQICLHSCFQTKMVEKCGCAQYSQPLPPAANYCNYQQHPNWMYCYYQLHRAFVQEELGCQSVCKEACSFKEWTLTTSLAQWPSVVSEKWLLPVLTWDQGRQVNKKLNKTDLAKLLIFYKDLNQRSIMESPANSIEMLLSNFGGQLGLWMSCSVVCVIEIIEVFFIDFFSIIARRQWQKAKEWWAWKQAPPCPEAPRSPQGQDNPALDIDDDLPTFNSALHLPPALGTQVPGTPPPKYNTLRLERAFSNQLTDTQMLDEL
Protocol: Sodium Channel ENaC Ussing Chamber Test
Human primary bronchial epithelial cells differentiated at air-liquid interface (ALI) on snapwell permeable supports (MatTek Corporation, MA, USA, cat no AIR-100-SNP) were maintained at ALI culture in a humidified incubator at 37° C. and 5% CO2. Basolateral medium (MatTek Corporation, MA, USA cat no AIR-100-MM-ASY) was changed every second day. Mucus or liquid formed on the apical side was gently aspirated every second day to maintain viability and performance of the cells.
The transepithelial voltage between the luminal/apical and basolateral membrane were measured in the ussing chamber consisted of vertical, in-house manufactured ussing chambers, DVC-1000 V/C clamps with preamplifiers (World Precision Instruments), electrode kits (EK1, World Precision Instruments), Power Lab with Chart5 software, water bath with external circulation and carbogen gas distribution and regulation system. Electrodes used in the set up were casted manually using 4% agarose in 0.9% sterile NaCl according to the manufacturer's recommendation.
The ussing chambers were assembled with an empty snapwell membrane (Costar 3407) and electrodes contained in Kreb's buffer (SIGMA-ALDRICH cat no K3753) for one hour at 37° C. in presence of 95% oxygen and 5% carbon dioxide. After this equilibration step the system was compensated for fluid resistance and input offset.
The equilibrated chambers were reassembled with a snapwell containing ALI cells and after 20 minutes stabilisation cumulative doses of the compounds were added to the apical side of the membrane. After the final dose 10 μM Benzamil was added to reach maximum.
All test compounds, including the reference compound, were diluted from 10 mM stocks in 100% DMSO and added to opaque 96-well plates (Greiner, Cat No. 651201). Dilution series of 12 doses were prepared in DMSO, starting with 3 μM followed by 10 times dilution steps.
Chart5 for Windows software was used to measure the value of the short circuit current after each compound addition. The data was transferred into Excel and analysed using IDBS XLfit® 5.2 (ID Business Solutions Ltd). The molar concentration of test or reference compound producing 50% inhibition (curve IC50) was derived by fitting data to a 4-parameter logistic function of the form: y=(A+((B−A)/(1+(((10^C)/x)^D))))
A The bottom plateau of the curve, i.e. the final minimum y value
B The top of the plateau of the curve i.e. the final maximum y value
C The log10 x value at a y value of 50%.

Row | IC50 [3] [nM] | SMILES | mortality [1] | ASL volume [2] | MCC rates [2]
1 |  | N=C(N)NC(=O)c1nc(Cl)c(N)nc1N [amiloride] | significantly reduced | increases | increases
2 | 0.0794 | CCCCCCN(CCNC(=O)c1ccc(CCNC[C@H](CNC(=O)c2nc(Cl)c(N)nc2N)Cc2ccccc2C)cc1)C[C@H](O)[C@@H](O)[C@H](O)CO [Example 13, 3,5-diamino-6-chloro-N—((R)-3-((4-((2-(hexyl((2S,3R,4R)-2,3,4,5-tetrahydroxypentyl)amino)ethyl)carbamoyl)phenethyl)amino)-2-(2-methylbenzyl)propyl)pyrazine-2-carboxamide Dihydrochloride] |  |  | 
3 | 2.51 | CCCCCCN(CCNC(=O)c1ccc(CNC[C@H](CNC(=O)c2nc(Cl)c(N)nc2N)Cc2ccccc2C)cc1)C[C@H](O)[C@@H](O)[C@H](O)CO [Example 2, 3,5-diamino-6-chloro-N—((R)-3-((4-((2-(hexyl((2S,3R,4R)-2,3,4,5-tetrahydroxypentyl)amino)ethyl)carbamoyl)benzyl)amino)-2-(2-methylbenzyl)propyl)pyrazine-2-carboxamide] |  |  | 

From patent US10336725B2, “Chemical compounds” (AstraZeneca AB, priority 2014, dated 2019)
